Assay results from article PMC9610285 (Pharmaceutics, 2022).
Like-named read-outs stand apart in the source and are kept apart here.

Conditions: 1 mg single oral dose, fasting
Method: The data used in this work were obtained from four bioequivalence clinical trials conducted at the Clinical Trials Unit of the Hospital Universitario de La Princesa (UECHUP) (EUDRA-CT IDs: 2012-004433-17, 2013-002159-14, 2014-001123-77 and 2021-000315-23). […] The reference formulation (R) in all cases was Azilect® 1 mg tablets (TEVA Pharmaceuticals Europe B.V.), which was compared against different test formulations (T), all of them 1 mg tablets, except in clinical trial 3, whose test formulation was orodispersible 1 mg. The four bioequivalence trials had two periods and two sequences (TR and RT). In the first period, the volunteers randomly were administered one of the two formulations and, in the following period, after a 7-day washout period, the opposite formulation. All of them were reviewed and approved by Independent Ethics Board (IEB) of the Hospital Universitario de La Princesa, and by the Spanish Drug Agency (AEMPS). In addition, they were performed in accordance with the guidelines of the International Conference on Harmonization for Good Clinical Practice (ICH-GCP), current Spanish legislation and the Revised Declaration of Helsinki. The pharmacogenetic study (SFC-FG-2020-1) was likewise approved by the IEB of Hospital Universitario de La Princesa (registry number 4176, 9 July 2020).
In each period, the drug was administered under fasting conditions, which were maintained until 5 h after drug administration. Each subject provided 20 or 21 blood samples (depending on the clinical trial) that were extracted by BD Vacutainer® vacuum system with EDTA K2 tubes for analysis at different times between 0 h (before receiving the drug) and up to 12 h after drug intake. […] A high-performance liquid chromatography coupled to triple quadrupole mass spectrometry (HPLC-MS/MS) analytical method was used. The latter was validated according to European regulations for bioequivalence assessment, with a lower limit of quantification (LLOQ) of 10 pg/mL and a calibration range of 10–10,000 pg/mL.
Pharmacokinetic parameters were calculated with WinNonlin Professional (Scientific Consulting, Inc., Cary, NC, USA) following a non-compartmental model. The area under the curve (AUC0-t), was obtained by the trapezoidal method. The extrapolation to infinity (AUC0-∞) was determined by the sum of two partial AUCs: AUCt-∞ calculated by the ratio Ct/k, where Ct is the last detectable concentration and k the elimination slope; plus AUC0-t. Cmax and tmax were directly obtained from the plasma time-concentration curves. t1/2 was calculated as Ln2/k. Plasma clearance adjusted for bioavailability (Cl/F) was calculated as dose/AUC. Finally, the volume of distribution adjusted for bioavailability (Vd/F) was calculated by dividing Cl/F by k.
The SPSS software (v23.0, SPSS Inc., Chicago, IL, USA) was used for statistical analyses. AUC0-∞, and Cmax were divided by the dose/weight (DW) ratio to correct sex-related variability related to a varying weight. For the same purpose, Vd/F and Cl/F were divided by weight. With the purpose of normalizing their distributions, all pharmacokinetic parameters were logarithmically transformed for statistical analysis. Initially, a univariate analysis was conducted of the demographic characteristics according to sex and ethnicity, and of the pharmacokinetic parameters or ADR incidence based on sex, biogeographical group (hereinafter, “ethnicity”), genotypes and phenotypes. T-tests were used for the comparison of means for variables with two categories and ANOVA tests for variables with three or more categories, followed by a Bonferroni post-hoc. The Shapiro–Wilk test was used to address the normality of demographic characteristics. For those not following a normal distribution, the nonparametric Kruskal–Wallis test was used.

[1] = CYP1A2 *1N/*1K, *1N/*1L, *1N/*1L and *1N/*1G merged, n=4

lower tmax value, ABCC2 rs2273697 A/A vs G allele carriers: approximately 50%
AUC0-∞/DW (ABCB1 rs1045642 A/A, n=23): 275.48 ± 59.65 ng·kg·h/mL/mg
Cmax/DW (ABCB1 rs1045642 A/A, n=23): 438.76 ± 152.32 ng·kg/mL/mg
t1/2 (ABCB1 rs1045642 A/A, n=23): 2.58 ± 0.63 h
tmax (ABCB1 rs1045642 A/A, n=23): 0.50 ± 0.21 h
AUC0-∞/DW (ABCB1 rs1045642 G/A, n=61): 273.00 ± 83.60 ng·kg·h/mL/mg
Cmax/DW (ABCB1 rs1045642 G/A, n=61): 426.48 ± 179.87 ng·kg/mL/mg
t1/2 (ABCB1 rs1045642 G/A, n=61): 2.63 ± 1.04 h
tmax (ABCB1 rs1045642 G/A, n=61): 0.51 ± 0.27 h
Cmax/DW (ABCB1 rs1045642 G/G, n=34): 359.70 ± 127.40 ng·kg/mL/mg
t1/2 (ABCB1 rs1045642 G/G, n=34): 2.83 ± 0.73 h
tmax (ABCB1 rs1045642 G/G, n=34): 0.47 ± 0.19 h
AUC0-∞/DW (ABCC2 rs2273697 A/A, n=3): 350.15 ± 86.34 ng·kg·h/mL/mg
Cmax/DW (ABCC2 rs2273697 A/A, n=3): 579.28 ± 133.19 ng·kg/mL/mg
t1/2 (ABCC2 rs2273697 A/A, n=3): 3.01 ± 0.49 h
AUC0-∞/DW (ABCC2 rs2273697 G/A, n=42): 264.50 ± 74.33 ng·kg·h/mL/mg
Cmax/DW (ABCC2 rs2273697 G/A, n=42): 411.51 ± 152.39 ng·kg/mL/mg
t1/2 (ABCC2 rs2273697 G/A, n=42): 2.59 ± 0.90 h
tmax (ABCC2 rs2273697 G/A, n=42): 0.48 ± 0.19 h
AUC0-∞/DW (ABCC2 rs2273697 G/G, n=73): 262.04 ± 73.57 ng·kg·h/mL/mg
Cmax/DW (ABCC2 rs2273697 G/G, n=73): 401.58 ± 167.92 ng·kg/mL/mg
t1/2 (ABCC2 rs2273697 G/G, n=73): 2.71 ± 0.89 h
tmax (ABCC2 rs2273697 G/G, n=73): 0.51 ± 0.26 h
t1/2 (COMT rs4680 A/A, n=26): 2.74 ± 1.00 h
tmax (COMT rs4680 A/A, n=26): 0.50 ± 0.22 h
AUC0-∞/DW (COMT rs4680 G/A, n=56): 285.72 ± 81.43 ng·kg·h/mL/mg
Cmax/DW (COMT rs4680 G/A, n=56): 450.03 ± 166.19 ng·kg/mL/mg
t1/2 (COMT rs4680 G/A, n=56): 2.71 ± 0.95 h
tmax (COMT rs4680 G/A, n=56): 0.47 ± 0.18 h
AUC0-∞/DW (COMT rs4680 G/G, n=36): 253.96 ± 59.13 ng·kg·h/mL/mg
Cmax/DW (COMT rs4680 G/G, n=36): 385.75 ± 140.56 ng·kg/mL/mg
t1/2 (COMT rs4680 G/G, n=36): 2.58 ± 0.68 h
tmax (COMT rs4680 G/G, n=36): 0.52 ± 0.32 h
AUC0-∞/DW (CYP1A2 *1B/*1B, n=6): 226.81 ± 52.00 ng·kg·h/mL/mg
Cmax/DW (CYP1A2 *1B/*1B, n=6): 411.84 ± 85.38 ng·kg/mL/mg
t1/2 (CYP1A2 *1B/*1B, n=6): 1.87 ± 0.6 h
tmax (CYP1A2 *1B/*1B, n=6): 0.42 ± 0.18 h
AUC0-∞/DW (CYP1A2 *1B/*1F, n=36): 265.27 ± 80.68 ng·kg·h/mL/mg
Cmax/DW (CYP1A2 *1B/*1F, n=36): 426.5 ± 183.44 ng·kg/mL/mg
t1/2 (CYP1A2 *1B/*1F, n=36): 2.66 ± 0.9 h
tmax (CYP1A2 *1B/*1F, n=36): 0.44 ± 0.19 h
AUC0-∞/DW (CYP1A2 *1B/*1L, n=4): 275.25 ± 108.77 ng·kg·h/mL/mg
Cmax/DW (CYP1A2 *1B/*1L, n=4): 392.87 ± 133.43 ng·kg/mL/mg
t1/2 (CYP1A2 *1B/*1L, n=4): 3.32 ± 1.62 h
tmax (CYP1A2 *1B/*1L, n=4): 0.46 ± 0.16 h
AUC0-∞/DW (CYP1A2 *1B/*1N, n=5): 256.33 ± 116.11 ng·kg·h/mL/mg
Cmax/DW (CYP1A2 *1B/*1N, n=5): 327.66 ± 320.93 ng·kg/mL/mg
t1/2 (CYP1A2 *1B/*1N, n=5): 3 ± 0.78 h
tmax (CYP1A2 *1B/*1N, n=5): 0.6 ± 0.28 h
AUC0-∞/DW (CYP1A2 *1F/*1F, n=38): 263.28 ± 60.08 ng·kg·h/mL/mg
Cmax/DW (CYP1A2 *1F/*1F, n=38): 403.23 ± 139.11 ng·kg/mL/mg
t1/2 (CYP1A2 *1F/*1F, n=38): 2.69 ± 0.82 h
tmax (CYP1A2 *1F/*1F, n=38): 0.51 ± 0.21 h
AUC0-∞/DW (CYP1A2 *1J/*1N, n=5): 275.39 ± 91.37 ng·kg·h/mL/mg
Cmax/DW (CYP1A2 *1J/*1N, n=5): 435.74 ± 117.78 ng·kg/mL/mg
t1/2 (CYP1A2 *1J/*1N, n=5): 2.15 ± 0.83 h
tmax (CYP1A2 *1J/*1N, n=5): 0.43 ± 0.09 h
AUC0-∞/DW (CYP1A2 *1L/*1F, n=11): 285.81 ± 77.84 ng·kg·h/mL/mg
Cmax/DW (CYP1A2 *1L/*1F, n=11): 389.59 ± 138.34 ng·kg/mL/mg
t1/2 (CYP1A2 *1L/*1F, n=11): 2.55 ± 1.07 h
tmax (CYP1A2 *1L/*1F, n=11): 0.64 ± 0.48 h
AUC0-∞/DW (CYP1A2 *1L/*1L, n=6): 301.28 ± 89.3 ng·kg·h/mL/mg
Cmax/DW (CYP1A2 *1L/*1L, n=6): 518.16 ± 158.15 ng·kg/mL/mg
t1/2 (CYP1A2 *1L/*1L, n=6): 3.06 ± 0.38 h
tmax (CYP1A2 *1L/*1L, n=6): 0.53 ± 0.17 h
AUC0-∞/DW [1]: 220.53 ± 87.92 ng·kg·h/mL/mg
Cmax/DW [1]: 355.79 ± 242.1 ng·kg/mL/mg
t1/2 [1]: 2.94 ± 0.69 h
tmax [1]: 0.5 ± 0.14 h
AUC0-∞/DW (CYP2C19 µM, n=3): 205.53 ± 82.32 ng·kg·h/mL/mg
Cmax/DW (CYP2C19 µM, n=3): 347.93 ± 233.78 ng·kg/mL/mg
t1/2 (CYP2C19 µM, n=3): 1.75 ± 0.67 h
Compound: C#CCN[C@@H]1CCc2ccccc21 [rasagiline, Rasagiline]
AUC0-∞/DW (ABCB1 rs1045642 G/G, n=34): 244.10 ± 63.87 (pm = 0.012) h*ng*kg/mL*mg
tmax (ABCC2 rs2273697 A/A, n=3): 0.22 ± 0.09 (pu = 0.005, pm = 0.001) ^& h
AUC0-∞/DW (COMT rs4680 A/A, n=26): 236.37 ± 68.34 (pu = 0.018, pm = 0.008) h*ng*kg/mL*mg
Cmax/DW (COMT rs4680 A/A, n=26): 355.69 ± 168.61 (pu = 0.012, pm = 0.035) ng*kg/mL*mg
